Laboratory results as given in PMC7691360, “Synthesis of novel cytotoxic tetracyclic acridone derivatives and study of their molecular docking, ADMET, QSAR, bioactivity and protein binding properties” (Scientific Reports, 2020).

Key:
MDA-MB-231 cells = experiment: MTT cytotoxicity assay against MDA-MB-231; type: cell-based; conditions: Homo sapiens, 48 h, read-out: Percentage of inhibition against treated concentrations; for activity at 1 µM: MDAMB231, 1 µM; for activity at 5 µM: MDAMB231, 5 µM; for activity at 10 µM: MDAMB231, 10 µM; for activity at 25 µM: MDAMB231, 25 µM; for activity at 50 µM: MDAMB231, 50 µM
Method: (§1) Anticancer activity of 7a–s has been evaluated by MTT [3-(4,5-dimethylthiazol-2-yl)-2,5-diphenyl-tetrazolium bromide] assay and the cell lines HT29 (ATCC: HTB-38), MDA-MB-231 (ATCC: HTB-26), HEK293T (ATCC: CRL-3216) were procured from American type cell culture collection (ATCC), Manassas, USA and other chemicals were procured from Sigma-Aldrich. Then absorbance (used as a measure of cell proliferation) was measured at 570 nm with a kinetic micro-plate reader (BioTek, Winooski, Vermont).
(§2) Having synthesized a series of the title compounds, all of them were screened for their in vitro anticancer profiles against a panel of human colorectal adenocarcinoma (HT29), human breast adenocarcinoma (MDA-MB-231) and mutated Human embryonic kidney 293 (HEK293T) cancer cell lines by using MTT colourmetric assay as per Johan van Meerloo protocol. The three cell lines were cultured in […] medium and supplemented with 10% FBS followed by 100 units/mL penicillin/ streptomycin and were cultured at 37 °C in 5% CO2. Cell proliferation of the growing cells was measured in terms of logarithmic standards. Analytically, all the cultured cells were plated onto 96 well plates at a starting density of 10^5 cells. Then all the cells were treated with title compounds 7a–s for a period of 48 h with different concentrations. After this incubation cell proliferation inhibition was determined by MTT assay and all the experiments were conducted in triplicates and readings were presented as mean ± SD and provided in Tables 1, 2 and 3.

HEK293T cells = experiment: MTT cytotoxicity assay against HEK293T; type: cell-based; conditions: Homo sapiens, HEK-293T, 48 h, read-out: Percentage of inhibition against treated concentrations
Method: as §1, §2

HT29 cells = experiment: MTT cytotoxicity assay against HT29; type: cell-based; conditions: Homo sapiens, 48 h, read-out: Percentage of inhibition against treated concentrations; for activity at 1 µM: HT-29, HT29, 1 µM; for activity at 5 µM: HT-29, HT29, 5 µM; for activity at 10 µM: HT-29, HT29, 10 µM; for activity at 25 µM: HT-29, HT29, 25 µM; for activity at 50 µM: HT-29, HT29, 50 µM
Method: as §1, §2

| Compound | activity at 1 µM (MDA-MB-231 cells) | activity at 5 µM (MDA-MB-231 cells) | activity at 10 µM (MDA-MB-231 cells) | activity at 25 µM (MDA-MB-231 cells) | activity at 50 µM (MDA-MB-231 cells) | activity at 1 µM (HEK293T cells) | activity at 5 µM (HEK293T cells) | activity at 10 µM (HEK293T cells) | activity at 25 µM (HEK293T cells) | activity at 50 µM (HEK293T cells) | melting point | activity at 1 µM (HT29 cells) | activity at 5 µM (HT29 cells) | activity at 10 µM (HT29 cells) | activity at 25 µM (HT29 cells) | activity at 50 µM (HT29 cells) |
| --- | --- | --- | --- | --- | --- | --- | --- | --- | --- | --- | --- | --- | --- | --- | --- | --- |
| O=C(c1ccccn1)N1CCn2c3ccccc3c(=O)c3cccc1c32 [Compound 7a, 3-Picolinoyl-2,3-dihydropyrazino[3,2,1-de]acridin-7(1H)-one] | 84.42 ± 0.35% | 55.22 ± 0.46% | 44.52 ± 0.29% | 25 ± 0.27% | 14.7 ± 0.42% | 99.93 ± 0.11% | 98.52 ± 0.96% | 97.63 ± 0.45% | 96.81 ± 0.2% | 57 ± 0.81% | 232 to 234 °C | 78.91 ± 0.42% | 57.61 ± 0.39% | 44.1 ± 0.86% | 14.9 ± 0.36% | 8.77 ± 0.72% |
| O=C(CC1CC1)N1CCn2c3ccccc3c(=O)c3cccc1c32 [Compound 7d, 3-(2-Cyclopropylacetyl)-2,3-dihydropyrazino[3,2,1-de]acridin-7(1H)-one] | 85.23 ± 0.73% | 55.73 ± 0.21% | 45.6 ± 0.98% | 28.6 ± 0.43% | 16.83 ± 0.16% | 99.76 ± 0.56% | 98.09 ± 0.42% | 97.1 ± 0.88% | 96.35 ± 0.19% | 56.8 ± 0.69% | – | 88.71 ± 0.78% | 63.1 ± 0.71% | 50.91 ± 0.38% | 29.68 ± 0.23% | 18 ± 0.39% |
| O=C(c1ccsc1)N1CCn2c3ccccc3c(=O)c3cccc1c32 [Compound 7h, 3-(Thiophene-3-carbonyl)-2,3-dihydropyrazino[3,2,1-de]acridin-7(1H)-one] | 82.62 ± 0.41% | 53.8 ± 0.75% | 42.4 ± 0.49% | 21.4 ± 0.29% | 12.6 ± 0.72% | 92.81 ± 0.18% | 89.61 ± 0.31% | 86.2 ± 0.66% | 78.45 ± 0.18% | 46.23 ± 0.43% | – | 87.92 ± 0.24% | 62.4 ± 0.68% | 50.2 ± 0.65% | 29.5 ± 0.51% | 17.8 ± 0.65% |
| O=C(c1cccc(C(F)(F)F)n1)N1CCn2c3ccccc3c(=O)c3cccc1c32 [Compound 7i, 3-(6-(Trifluoromethyl)picolinoyl)-2,3-dihydropyrazino[3,2,1-de]acridin-7(1H)-one] | 84.78 ± 0.64% | 55.71 ± 0.32% | 45.6 ± 0.94% | 28.6 ± 0.3% | 16.8 ± 0.37% | 98.39 ± 0.19% | 95.7 ± 0.97% | 93.38 ± 0.64% | 88.56 ± 0.24% | 52.19 ± 0.26% | – | 83.56 ± 0.57% | 59.1 ± 0.75% | 46.5 ± 0.52% | 25.8 ± 0.28% | 12.2 ± 0.27% |
| O=C(c1ccccc1C(F)(F)F)N1CCn2c3ccccc3c(=O)c3cccc1c32 [Compound 7m, 3-(2-(Trifluoromethyl)benzoyl)-2,3-dihydro-1H,7H-pyrazino[3,2,1-de]acridin-7-one] | 92.11 ± 0.88% | 71.15 ± 0.19% | 65 ± 0.46% | 56.9 ± 0.59% | 33.5 ± 0.57% | 97.18 ± 0.28% | 94.73 ± 0.82% | 92.36 ± 0.46% | 86.88 ± 0.3% | 51.2 ± 0.07% | – | 92.71 ± 0.01% | 76.71 ± 0.17% | 68.5 ± 0.72% | 57.33 ± 0.32% | 23.8 ± 0.33% |
| O=C(c1cccc(C(F)(F)F)c1)N1CCn2c3ccccc3c(=O)c3cccc1c32 [Compound 7n, 3-(3-(Trifluoromethyl)benzoyl)-2,3-dihydro-1H,7H-pyrazino[3,2,1-de]acridin-7-one] | 90.57 ± 0.59% | 69.83 ± 0.31% | 61.97 ± 0.44% | 54.23 ± 0.32% | 31.96 ± 0.16% | 96.84 ± 0.75% | 94.67 ± 0.59% | 92.02 ± 0.39% | 84.32 ± 0.28% | 49.69 ± 0.21% | – | 95.32 ± 0.73% | 79.12 ± 0.33% | 72.72 ± 0.33% | 59.26 ± 0.11% | 26.9 ± 0.84% |
| O=C(c1cccc(F)c1)N1CCn2c3ccccc3c(=O)c3cccc1c32 [Compound 7q, 3-(3-Fluorobenzoyl)-2,3-dihydro-1H,7H-pyrazino[3,2,1-de]acridin-7-one] | 93.46 ± 0.54% | 72.41 ± 0.45% | 66.2 ± 0.69% | 57.89 ± 0.12% | 34.1 ± 0.37% | 98.51 ± 0.12% | 96.21 ± 0.72% | 94.69 ± 0.34% | 91.34 ± 0.41% | 53.8 ± 0.58% | – | 94.96 ± 0.53% | 78.87 ± 0.43% | 70.57 ± 0.53% | 58.23 ± 0.29% | 25.3 ± 0.44% |
| O=c1c2ccccc2n2c3c(cccc13)N(c1cccnc1)CC2 [Compound 7s, 3-(Pyridin-3-yl)-2,3-dihydropyrazino[3,2,1-de]acridin-7(1H)-one] | 88.63 ± 0.67% | 59.87 ± 0.26% | 49.22 ± 0.24% | 43.07 ± 0.28% | 25.4 ± 0.46% | 93.26 ± 0.88% | 91.78 ± 0.53% | 88.09 ± 0.54% | 80.57 ± 0.26% | 47.8 ± 0.79% | – | 84.78 ± 0.12% | 60.38 ± 0.24% | 48.4 ± 0.57% | 27.5 ± 0.35% | 15.2 ± 0.61% |
| COc1cccc2c1C(=O)c1c(O)c3c(c(O)c1C2=O)C[C@@](O)(C(=O)CO)C[C@@H]3O[C@H]1C[C@H](N)[C@H](O)[C@H](C)O1 [Doxorubicin, reference compound] | 93.65 ± 0.42% | 87.54 ± 0.67% | 79.98 ± 0.67% | 69.98 ± 0.47% | 41.2 ± 0.79% | 96.1 ± 0.83% | 95.66 ± 0.42% | 92.44 ± 0.56% | 85.27 ± 0.78% | 50.25 ± 0.14% | – | 97.09 ± 0.79% | 90.76 ± 0.83% | 82.92 ± 0.54% | 72.6 ± 0.83% | 42.8 ± 0.86% |
